Assay results as given in ChEMBL document CHEMBL3991601, “The target landscape of clinical kinase drugs” (Science, 2017).
Activity calls are given as the source filed them. Rule as the data show it, for most assays here: actives have a measured Kd and inactives only a lower limit.

Key:
[1] = target: T1, Serine/threonine-protein kinase 3 (Homo sapiens, UniProt Q13188)
T1 sequence (Q13188 whole entry): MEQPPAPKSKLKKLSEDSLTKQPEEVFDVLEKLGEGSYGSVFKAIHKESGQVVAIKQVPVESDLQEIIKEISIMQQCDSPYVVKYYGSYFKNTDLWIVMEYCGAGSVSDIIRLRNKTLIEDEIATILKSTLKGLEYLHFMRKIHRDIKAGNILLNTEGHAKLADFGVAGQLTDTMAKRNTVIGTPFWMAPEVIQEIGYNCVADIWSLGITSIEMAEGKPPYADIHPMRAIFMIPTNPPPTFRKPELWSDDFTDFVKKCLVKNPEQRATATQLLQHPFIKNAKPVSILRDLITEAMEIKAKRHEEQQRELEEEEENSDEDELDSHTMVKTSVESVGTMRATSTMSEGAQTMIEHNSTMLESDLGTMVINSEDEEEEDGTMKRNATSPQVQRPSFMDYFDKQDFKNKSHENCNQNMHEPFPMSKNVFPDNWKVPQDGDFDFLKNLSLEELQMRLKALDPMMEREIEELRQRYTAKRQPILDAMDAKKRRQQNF

[2] = target: DnaJ homolog subfamily A member 1 (Homo sapiens, UniProt P31689)
Activin receptor type-1 = target: T2, Activin receptor type-1 (Homo sapiens, UniProt Q04771)
T2 sequence (Q04771 whole entry): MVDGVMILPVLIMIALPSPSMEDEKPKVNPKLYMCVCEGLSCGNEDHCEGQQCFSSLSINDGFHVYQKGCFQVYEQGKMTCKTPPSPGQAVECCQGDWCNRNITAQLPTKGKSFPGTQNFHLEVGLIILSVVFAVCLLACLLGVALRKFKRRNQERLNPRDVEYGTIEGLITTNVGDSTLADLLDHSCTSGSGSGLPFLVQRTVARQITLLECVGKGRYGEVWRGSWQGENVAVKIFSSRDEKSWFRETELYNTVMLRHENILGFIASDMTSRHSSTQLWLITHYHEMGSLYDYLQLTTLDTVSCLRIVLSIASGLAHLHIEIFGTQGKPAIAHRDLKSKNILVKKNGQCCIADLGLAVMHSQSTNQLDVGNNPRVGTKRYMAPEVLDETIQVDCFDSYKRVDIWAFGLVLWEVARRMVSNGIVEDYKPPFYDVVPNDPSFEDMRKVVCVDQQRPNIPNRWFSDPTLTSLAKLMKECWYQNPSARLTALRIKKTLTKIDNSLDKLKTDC

[3] = target: Dual specificity protein kinase CLK1 (Homo sapiens, UniProt P49759)
[4] = target: T3, Serine/threonine-protein kinase Chk1 (Homo sapiens, UniProt O14757)
T3 sequence (O14757 whole entry): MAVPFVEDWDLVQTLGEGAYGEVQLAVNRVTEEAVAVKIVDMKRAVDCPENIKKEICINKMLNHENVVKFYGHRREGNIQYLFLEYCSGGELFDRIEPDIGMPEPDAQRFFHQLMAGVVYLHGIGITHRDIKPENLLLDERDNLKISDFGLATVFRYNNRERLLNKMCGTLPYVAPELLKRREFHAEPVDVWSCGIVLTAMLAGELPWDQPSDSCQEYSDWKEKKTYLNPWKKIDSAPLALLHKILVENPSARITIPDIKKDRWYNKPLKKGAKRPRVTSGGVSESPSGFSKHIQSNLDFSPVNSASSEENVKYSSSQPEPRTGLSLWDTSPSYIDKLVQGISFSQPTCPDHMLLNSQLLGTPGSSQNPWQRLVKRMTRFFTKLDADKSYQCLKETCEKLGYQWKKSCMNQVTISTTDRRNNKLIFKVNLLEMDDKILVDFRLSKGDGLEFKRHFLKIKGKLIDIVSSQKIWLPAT

[5] = target: T4, Calcium/calmodulin-dependent protein kinase type IV (Homo sapiens, UniProt Q16566)
T4 sequence (Q16566 whole entry): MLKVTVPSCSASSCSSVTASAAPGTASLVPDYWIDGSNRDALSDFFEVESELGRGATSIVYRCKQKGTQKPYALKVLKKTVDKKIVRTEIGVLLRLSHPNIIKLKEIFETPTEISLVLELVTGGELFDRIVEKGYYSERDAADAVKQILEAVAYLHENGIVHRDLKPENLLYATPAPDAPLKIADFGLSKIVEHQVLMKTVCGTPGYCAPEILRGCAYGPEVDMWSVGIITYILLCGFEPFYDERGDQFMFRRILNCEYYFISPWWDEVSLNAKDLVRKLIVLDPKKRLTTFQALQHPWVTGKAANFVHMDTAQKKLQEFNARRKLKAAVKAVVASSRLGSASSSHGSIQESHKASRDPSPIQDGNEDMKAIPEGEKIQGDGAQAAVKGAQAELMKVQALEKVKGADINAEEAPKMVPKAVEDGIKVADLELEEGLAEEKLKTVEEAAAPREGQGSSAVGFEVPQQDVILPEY

[6] = target: T5, Non-receptor tyrosine-protein kinase TNK1 (Homo sapiens, UniProt Q13470)
T5 sequence (Q13470 whole entry): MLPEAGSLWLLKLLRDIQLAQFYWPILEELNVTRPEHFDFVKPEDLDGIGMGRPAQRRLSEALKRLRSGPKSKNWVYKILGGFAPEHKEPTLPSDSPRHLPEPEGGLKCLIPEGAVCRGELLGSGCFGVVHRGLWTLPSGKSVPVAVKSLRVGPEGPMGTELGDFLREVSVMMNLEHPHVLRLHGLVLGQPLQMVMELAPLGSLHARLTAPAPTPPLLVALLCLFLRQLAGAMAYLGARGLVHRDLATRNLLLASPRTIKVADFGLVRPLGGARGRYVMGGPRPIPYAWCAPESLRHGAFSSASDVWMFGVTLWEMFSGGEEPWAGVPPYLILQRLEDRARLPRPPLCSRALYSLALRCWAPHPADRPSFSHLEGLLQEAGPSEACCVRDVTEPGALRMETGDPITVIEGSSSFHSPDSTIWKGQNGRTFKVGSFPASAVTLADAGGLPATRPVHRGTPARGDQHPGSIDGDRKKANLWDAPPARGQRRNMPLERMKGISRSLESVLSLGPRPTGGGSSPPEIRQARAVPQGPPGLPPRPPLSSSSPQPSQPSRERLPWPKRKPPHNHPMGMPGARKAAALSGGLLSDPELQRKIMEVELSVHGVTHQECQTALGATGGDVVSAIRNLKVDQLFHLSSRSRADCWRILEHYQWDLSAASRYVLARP
Also: in the data inactive means no Kd found up to 30 µM.

DnaJ homolog subfamily A member 1, sequence (P31689 whole entry): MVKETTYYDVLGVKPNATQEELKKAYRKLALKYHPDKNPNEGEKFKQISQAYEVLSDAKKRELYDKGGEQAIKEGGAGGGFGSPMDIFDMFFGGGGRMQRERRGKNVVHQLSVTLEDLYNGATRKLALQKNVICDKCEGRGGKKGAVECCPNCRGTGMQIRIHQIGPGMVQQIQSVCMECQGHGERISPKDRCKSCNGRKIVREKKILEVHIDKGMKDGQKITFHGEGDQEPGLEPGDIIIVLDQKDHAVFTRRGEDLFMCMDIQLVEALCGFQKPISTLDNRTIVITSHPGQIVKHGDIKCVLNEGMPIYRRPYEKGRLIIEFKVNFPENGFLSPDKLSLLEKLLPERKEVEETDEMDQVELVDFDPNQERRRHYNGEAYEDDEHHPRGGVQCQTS
Dual specificity protein kinase CLK1, sequence (P49759 whole entry): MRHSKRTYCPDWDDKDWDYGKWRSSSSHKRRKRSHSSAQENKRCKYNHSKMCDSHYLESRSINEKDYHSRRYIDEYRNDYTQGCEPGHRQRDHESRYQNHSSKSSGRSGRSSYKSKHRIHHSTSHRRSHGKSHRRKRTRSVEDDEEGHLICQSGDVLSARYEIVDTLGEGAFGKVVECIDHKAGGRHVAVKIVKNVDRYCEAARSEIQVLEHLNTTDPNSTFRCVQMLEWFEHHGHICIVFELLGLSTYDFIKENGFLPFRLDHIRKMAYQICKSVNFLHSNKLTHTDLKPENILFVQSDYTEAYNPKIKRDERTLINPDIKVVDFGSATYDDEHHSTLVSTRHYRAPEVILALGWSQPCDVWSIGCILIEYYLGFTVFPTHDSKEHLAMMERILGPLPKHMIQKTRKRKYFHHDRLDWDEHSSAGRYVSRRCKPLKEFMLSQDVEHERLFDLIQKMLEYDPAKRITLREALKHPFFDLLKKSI

Kd [1]: > 30 µM (inactive) | Kd [2]: > 30 µM (inactive) | Kd (Activin receptor type-1): > 30 µM (inactive) | Kd [3]: > 30 µM (inactive) | Kd [4]: > 30 µM (inactive) | Kd [5]: > 30 µM (inactive) | Kd [6]: > 30 µM (inactive)
Structure (SMILES): COc1cc2ncnc(Nc3ccc(O)cc3)c2cc1OC [WHI-P131]
